Measurements published in patent US20130344501A1, “METHODS FOR PRODUCING THREE-DIMENSIONAL PHYSIOLOGICALLY RELEVANT IMMUNE TISSUE SYSTEMS UNDER LOW FLUID SHEAR CONDITIONS” (priority 2010, published 2013).

Legend:
A549 3-D = assay: Cell viability of three-dimensional A549 monotypic cultures after exposure to 3-oxo-C12 HSL, flow cytometry; assay type: cell-based, human; conditions: for Percentage viability, A549 3-D: A549 exposed alone, 20 hour exposure
Description: The three-dimensional A549 monotypic cultures were made as previously described (Carterson et al., 2005).
(§1) Assessment of live-, apoptotic-, and necrotic cell populations was performed with the annexin V-propidium iodide (PI) kit for flow cytometry analysis (ImmunoSource) according to the manufacturer's instructions.
(§2) Stained cell suspensions were analyzed with an EPICS XL flow cytometer (Beckman-Coulter) or a Cytomics FC 500 system (Beckman-Coulter), equipped with an argon laser and filters for adequate excitation of the chosen fluorophores. Forward scatter, side scatter, FITC-, PI and PE-Cy5 emissions were measured and a total of 10,000 cells were recorded for each sample. The respective cell populations were delimited to eliminate background signals originating from cell debris. To assess background fluorescent signals from the tested cell populations, non-stained samples were included.
(§3) After 72 hours of co-cultivation, aggregates containing 2×10^6 cells were seeded into 6-well plates containing fresh medium (5 ml total volume). Subsequently, aggregates were spiked with 5, 10 or 100 μM 3-oxo-C12 HSL (Sigma-Aldrich) (starting from a 20 mM stock solution in DMSO, stored at −20° C.). Equal volumes of DMSO, containing the respective amounts of 3-oxo-C12 HSL, were added to each well (25 μl) and a solvent control (25 μl DMSO) was included in each experiment. Six-well plates were placed at 37° C. in a 5% CO2 environment and incubated for 20 hours. For exposure assays of monocytes to 3-oxo-C12 HSL, 2×10^6 U937 cells/well were transferred in 6-well plates. To assess the influence of 3-oxo-C12 HSL on monocytes cultured on microcarrier beads, collagen I-coated beads were added to the cells at the same concentration as for seeding three-dimensional cultures (1 bead per 2500 cells). Subsequently, monocyte cultures (with or without microcarrier beads) were spiked with 3-oxo-C12 HSL (see above). A solvent control was included. After 20 hours incubation, cells were processed for flow cytometry analysis. Cell viability was assayed with trypan blue (0.4%) (Sigma) and/or with the annexin V-PI kit (ImmunoSource) (see above). […] FIG. 9B are examples of the three-dimensional A549-U937 co-culture model exposed to 100 μM 3-oxo-C12 HSL and to the solvent control DMSO. The presented cell population is gated for CD45 positive cells and thus only includes monocytes/macrophages. For FIGS. 9A-B, “I” represents the percentage of dead cells, while “H” is the viable cell population. Consequently, cell viability was further assessed based on the shift in forward scatter signal (see Table 1).

[1] = tested on: U937 cells in A549-U937 3-D co-culture; assay: Viability of U937 macrophage-like cells (CD45 positive) in the three-dimensional A549-U937 co-culture after exposure to 3-oxo-C12 HSL; assay type: cell-based, human; conditions: for Percentage viability, A549-U937 3-D, U937: U937 co-cultured three-dimensionally with A549, 20 hour exposure
Description: A549 three-dimensional aggregates were grown as described above and after 9 days of three-dimensional A549 cultivation, undifferentiated U937 monocytes were added to the HARV as follows. three-dimensional A549 cells were counted by trypsinization of an aggregate sample and U937 cells (grown in T75 flasks) were added in a 1:1 ratio to the three-dimensional A549 culture. A549 and U937 cells were co-cultured in the HARV at 20 rpm for 72 h. After addition of the monocytes, culture medium was changed after 48 hours of co-cultivation where after medium was replenished every 24 hours.
as §1, §2
three-dimensional co-cultures of A549 and U937 cells (as described above) were stained for CD45, since this marker specifically stains leukocytes.
as §3

[2] = tested on: ICAM-1 expression of A549 cells (derived from the three-dimensional A549-U937 co-culture); assay: ICAM-1 expression of A549 cells from the three-dimensional A549-U937 co-culture exposed to 3-oxo-C12 HSL, flow cytometry; assay type: cell-based, human
Source text: (§4) Mouse anti-human CD45 (Invitrogen) and ICAM-1 (Invitrogen) conjugated with phycoerythrin (PE)-Cy5 and FITC respectively were used for flow cytometry staining. Sample preparation and fluorescent staining of cells. Cells were rinsed 2 times with pre-warmed HBSS (Invitrogen), detached from microcarrier beads/culture flasks with 0.25% trypsin-EDTA (Invitrogen) and counted using a hemocytometer. For inclusion of cells detached from the microcarrier beads (three-dimensional A549 and three-dimensional A549-U937 co-cultures) in the frame of QS exposure studies (see below), whole cultures (both aggregates and bulk liquid) were centrifuged at 1200 rpm for 6 min for each washing step. […]
(§5) Stained cell suspensions were analyzed with an EPICS XL flow cytometer (Beckman-Coulter) or a Cytomics FC 500 system (Beckman-Coulter), equipped with an argon laser and filters for adequate excitation of the chosen fluorophores. Forward scatter, side scatter, FITC-, PI and PE-Cy5 emissions were measured and a total of 10,000 cells were recorded for each sample. […]
(§6) After 72 hours of co-cultivation, aggregates containing 2×10^6 cells were seeded into 6-well plates containing fresh medium (5 ml total volume). […] Consequently, cell viability was further assessed based on the shift in forward scatter signal (see Table 1).

[3] = tested on: ICAM-1 signal of the macrophage-like cells (U937, CD45 positive); assay: ICAM-1 signal of macrophage-like cells in the three-dimensional A549-U937 co-culture exposed to 3-oxo-C12 HSL, flow cytometry; assay type: cell-based, human; conditions: 100 μM; 20 hours; p<0.01; mean ± SD, N=3
Source text: as §4, §5, §6

U937 cells = conditions: this and other studies (Tateda 2003, Kravchenko 2006, Li 2009); cited from earlier work

CCCCCCCCCC(=O)CC(=O)N[C@H]1CCOC1=O [3-oxo-C12 HSL, N-(3-oxododecanoyl)-Lhomoserine lactone]
cell death in A549 three-dimensional monotypic cultures (A549 3-D; 5, 10 and 100 μM): did not induce cell death
Percentage viability, A549 3-D (A549 3-D; 5 μM): 97.7 ± 0.00%
Percentage viability, A549 3-D (A549 3-D; 10 μM): 97.8 ± 0.00%
Percentage viability, A549 3-D (A549 3-D; 100 μM): 94.9 ± 0.02%
macrophage cell death with inclusion of all detached cells ([1]; 100 μM versus DMSO control): no difference in macrophage cell death
decrease of the ratio of U937 cells to the total cell population in three-dimensional A549-U937 aggregates ([1]; 100 μM, compared to the non-exposed control): 37±5%
viability of macrophage-like U937 cells co-cultured with A549 in three-dimensional ([1]; 100 μM, up to 20 hours): minimally affected in viability
death in the attached macrophage-like cell population of the co-culture ([1]; 5 and 10 μM, compared to the control): did not induce increased death
Percentage viability, A549-U937 3-D, U937 ([1]; 5 μM): 97.1 ± 0.01%
Percentage viability, A549-U937 3-D, U937 ([1]; 10 μM): 99.3 ± 0.01%
Percentage viability, A549-U937 3-D, U937 ([1]; 100 μM): 93.8 ± 0.03%
cell death in three-dimensional co-cultured monocytes/macrophages with alveolar epithelium ([1]; concentrations up to 100 μM, either of the cell populations): did not induce cell death
ICAM-1 expression increase compared to the solvent control ([2]; 100 μM, 20 hours, p<0.01, mean ± SD, N=3): 1.66±0.11 fold
ICAM-1 expression ([2]; lower concentrations of the QS molecule): did not affect ICAM-1 expression
increase in the ICAM-1 signal compared to the control samples [3]: 2.93±0.79 fold
concentrations at which apoptosis is induced in pure cultures of monocytes and macrophages (U937 cells): above 25 μM
